The values that follow are results of earlier work, collected in PubChem BioAssay AID1259409 (Chemical Carcinogenesis Research Information System (CCRIS), 2018).

In the data set the test system is rodent chemically induced tumor inhibition, incidence and multiplicity. Nature of the data set: CCRIS tumor inhibitor studies. The note with it: Carcinogen: 2,2'-DIHYDROXY-DI-N-PROPYLNITROSAMINE, 53609-64-6, 13147-25-6, Carcinogen: 2,2'-DIHYDROXY-DI-N-PROPYLNITROSAMINE, 53609-64-6, 13147-25-6, Dose [Inhibitor]: 0, Route [Inhibitor]: ORAL, Species: RAT, Strain/Sex: F344/MALE, Promoter: NONE USED.

SMILES strings stand for the structures.

As for `COc1cc(/C=C/C(=O)O[C@H]2CC[C@]34C[C@]35CC[C@]3(C)[C@@H]([C@H](C)CCC=C(C)C)CC[C@@]3(C)[C@@H]5CC[C@H]4C2(C)C)ccc1O`, the “tumour outcome (control, treated, inhibition, significance)” value is, setting by setting: (N-ETHYL-N-HYDROXYETHYL- NITROSAMINE, 3,2'-DIMETHYL-4-, N-ETHYL-N-HYDROXYETHYL- NITROSAMINE, 3,2'-DIMETHYL-4-, 1% IN DIET BEGINNING 1 WK POST LAST CARCINOGEN DOSE AND CONTINUING FOR 32 WK (STUDY DURATION: 36 WK), Target Tissue: Type of Lesion: LIVER: HEPATOCELLULAR CARCINOMA, Dose [Carcinogen]: 1000 MG/KG IP DHPN 2X, 1500 MG/KG GAV EHEN 2X AND 75 MG/KG SC DMAB 3X GIVEN OVER THE INITIAL 3 WK PERIOD AT 3-4 D INTERV) 6/14 (43%), 3/13 (23%), 47%, not calculated; (N-ETHYL-N-HYDROXYETHYL- NITROSAMINE, 3,2'-DIMETHYL-4-, N-ETHYL-N-HYDROXYETHYL- NITROSAMINE, 3,2'-DIMETHYL-4-, 1% IN DIET BEGINNING 1 WK POST LAST CARCINOGEN DOSE AND CONTINUING FOR 32 WK (STUDY DURATION: 36 WK), Target Tissue: Type of Lesion: LUNG: ADENOMA, Dose [Carcinogen]: 1000 MG/KG IP DHPN 2X, 1500 MG/KG GAV EHEN 2X AND 75 MG/KG SC DMAB 3X GIVEN OVER THE INITIAL 3 WK PERIOD AT 3-4 D INTERV) 7/14 (50%), 11/13 (85%), -70%, not calculated; (N-ETHYL-N-HYDROXYETHYL- NITROSAMINE, 3,2'-DIMETHYL-4-, N-ETHYL-N-HYDROXYETHYL- NITROSAMINE, 3,2'-DIMETHYL-4-, 1% IN DIET BEGINNING 1 WK POST LAST CARCINOGEN DOSE AND CONTINUING FOR 32 WK (STUDY DURATION: 36 WK), Target Tissue: Type of Lesion: LUNG: CARCINOMA, Dose [Carcinogen]: 1000 MG/KG IP DHPN 2X, 1500 MG/KG GAV EHEN 2X AND 75 MG/KG SC DMAB 3X GIVEN OVER THE INITIAL 3 WK PERIOD AT 3-4 D INTERV) 1/14 (7%), 7/13 (54%), -671%, p<0.05; (N-ETHYL-N-HYDROXYETHYLNITROSAMINE, 3,2'-DIMETHYL-4-AMINO-, N-ETHYL-N-HYDROXYETHYLNITROSAMINE, 3,2'-DIMETHYL-4-AMINO-, 1% IN DIET FOR 32 WK BEGINNING 1 WK POST CARCINOGEN TREATMENT (STUDY DURATION: 36 WK), Target Tissue: Type of Lesion: KIDNEY: ADENOMA, Dose [Carcinogen]: 1000 MG/KG BW DHPN TWICE , 1500 MG/KG BW EHEN TWICE, 75 MG/KG BW 3 TIMES ADMINISTERED OVER FIRST 3 WK) 6/14 (43%), 9/13 (69%), -60%, not significant; (N-ETHYL-N-HYDROXYETHYLNITROSAMINE, 3,2'-DIMETHYL-4-AMINO-, N-ETHYL-N-HYDROXYETHYLNITROSAMINE, 3,2'-DIMETHYL-4-AMINO-, 1% IN DIET FOR 32 WK BEGINNING 1 WK POST CARCINOGEN TREATMENT (STUDY DURATION: 36 WK), Target Tissue: Type of Lesion: KIDNEY: NEPHROBLASTOMA, Dose [Carcinogen]: 1000 MG/KG BW DHPN TWICE, 1500 MG/KG BW EHEN TWICE, 75 MG/KG BW 3 TIMES ADMINISTERED OVER FIRST 3 WK) 2/14 (14%), 0/13 (0%), 100%, not significant; (N-ETHYL-N-HYDROXYETHYLNITROSAMINE, 3,2'-DIMETHYL-4-AMINO-, N-ETHYL-N-HYDROXYETHYLNITROSAMINE, 3,2'-DIMETHYL-4-AMINO-, 1% IN DIET FOR 32 WK BEGINNING 1 WK POST CARCINOGEN TREATMENT (STUDY DURATION: 36 WK), Target Tissue: Type of Lesion: KIDNEY: TRANSITIONAL CELL CARCINOMA, Dose [Carcinogen]: 1000 MG/KG BW DHPN TWICE , 1500 MG/ KG BW EHEN TWICE, 75 MG/KG BW 3 TIMES ADMINISTERED OVER FIRST THREE WEEKS) 1/14 (7%), 2/13 (15%), -114%, not significant. Also, the “tumour outcome (control, treated, inhibition, significance)” value by setting is: (N-ETHYL-N-HYDROXYETHYLNITROSAMINE, 3,2'-DIMETHYL-4-AMINO-, N-ETHYL-N-HYDROXYETHYLNITROSAMINE, 3,2'-DIMETHYL-4-AMINO-, 1% IN DIET FOR 32 WK BEGINNING 1 WK POST CARCINOGEN TREATMENT (STUDY DURATION: 36 WK), Target Tissue: Type of Lesion: LARGE INTESTINE: CARCINOMA, Dose [Carcinogen]: 1000 MG/KG BW DHPN TWICE, 1500 MG/KG BW EHEN TWICE, 75 MG/KG BW 3 TIMES ADMINISTERED OVER 3 WK) 3/14 (21%), 6/13 (46%), -119%, not significant; (N-ETHYL-N-HYDROXYETHYLNITROSAMINE, 3,2'-DIMETHYL-4-AMINO-, N-ETHYL-N-HYDROXYETHYLNITROSAMINE, 3,2'-DIMETHYL-4-AMINO-, 1% IN DIET FOR 32 WK BEGINNING 1 WK POST CARCINOGEN TREATMENT (STUDY DURATION: 36 WK), Target Tissue: Type of Lesion: LIVER: HEPATOCELLULAR CARCINOMA, Dose [Carcinogen]: 1000 MG/KG BW DHPN TWICE , 1500 MG/KG BW EHEN TWICE 75 MG/KG BW 3 TIMES ADMINISTERED OVER FIRST 3 WK) 6/14 (43%), 3/13 (23%), 47%, not significant. Besides, the outcome (N-ETHYL-N-HYDROXYETHYL- NITROSAMINE, 3,2'-DIMETHYL-4-, N-ETHYL-N-HYDROXYETHYL- NITROSAMINE, 3,2'-DIMETHYL-4-, 1% IN DIET BEGINNING 1 WK POST LAST CARCINOGEN DOSE AND CONTINUING FOR 32 WK (STUDY DURATION: 36 WK), Target Tissue: Type of Lesion: URINARY BLADDER: PAPILLOMA, Dose [Carcinogen]: 1000 MG/KG IP DHPN 2X, 1500 MG/KG GAV EHEN 2X AND 75 MG/KG SC DMAB 3X GIVEN OVER THE INITIAL 3 WK PERIOD AT 3-4 D INTERV) is on record as 0/14 (0%), 3/13 (23%), -100%, not calculated.
